Data: ChEMBL document CHEMBL1135054, “Biphenylsulfonamide endothelin receptor antagonists. Part 3: structure-activity relationship of 4'-heterocyclic biphenylsulfonamides” (Bioorg Med Chem Lett, 2002)

What was measured:
[1] = target: T1, Endothelin receptor type B (Homo sapiens, UniProt P24530); experiment: Binding affinity to CHO cells stably expressing human Endothelin B receptor.; type: cell-based
T1 sequence (P24530 whole entry): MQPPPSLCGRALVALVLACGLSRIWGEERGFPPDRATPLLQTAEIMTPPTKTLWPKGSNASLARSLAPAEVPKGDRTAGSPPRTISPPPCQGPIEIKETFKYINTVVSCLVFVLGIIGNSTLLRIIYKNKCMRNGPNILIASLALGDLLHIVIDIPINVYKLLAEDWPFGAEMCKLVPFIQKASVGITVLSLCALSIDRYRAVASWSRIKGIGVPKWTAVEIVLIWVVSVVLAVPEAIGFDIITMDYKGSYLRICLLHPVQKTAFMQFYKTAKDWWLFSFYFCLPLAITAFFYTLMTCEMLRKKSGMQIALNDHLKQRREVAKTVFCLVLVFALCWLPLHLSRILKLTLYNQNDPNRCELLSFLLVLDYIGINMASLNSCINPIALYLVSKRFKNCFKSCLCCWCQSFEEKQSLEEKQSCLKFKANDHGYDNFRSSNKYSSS

Endothelin-1 receptor = target: T2, Endothelin-1 receptor (Homo sapiens, UniProt P25101); experiment: biochemical
T2 sequence (P25101 whole entry): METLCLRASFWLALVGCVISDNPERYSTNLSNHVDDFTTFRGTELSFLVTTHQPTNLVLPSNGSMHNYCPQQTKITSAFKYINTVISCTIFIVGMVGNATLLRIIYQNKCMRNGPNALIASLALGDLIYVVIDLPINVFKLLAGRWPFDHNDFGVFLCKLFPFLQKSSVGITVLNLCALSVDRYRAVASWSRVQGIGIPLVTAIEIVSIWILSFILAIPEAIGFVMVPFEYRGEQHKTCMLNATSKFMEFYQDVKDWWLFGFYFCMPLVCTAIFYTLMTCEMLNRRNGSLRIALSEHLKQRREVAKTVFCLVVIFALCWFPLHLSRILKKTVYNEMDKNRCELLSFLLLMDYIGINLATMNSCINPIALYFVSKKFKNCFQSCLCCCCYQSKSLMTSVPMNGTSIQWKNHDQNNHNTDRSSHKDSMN
Description: Binding affinity to CHO cells stably expressing human Endothelin A receptor.

SMILES	Ki [1] [µM]	Ki (Endothelin-1 receptor) [µM]
Cc1[n-][o+]c(NS(=O)(=O)c2ccccc2-c2ccc(-c3cccc[n+]3[O-])cc2)c1C	30.8	0.037
Cc1noc(NS(=O)(=O)c2ccccc2-c2ccc(-c3cnccn3)cc2)c1C	22	0.0062
COc1cc(OC)nc(-c2ccc(-c3ccccc3S(=O)(=O)Nc3onc(C)c3C)cc2)n1	48	0.22
Cc1noc(NS(=O)(=O)c2ccccc2-c2ccc(-n3cccn3)cc2)c1C	9.4	0.0067
Cc1noc(NS(=O)(=O)c2ccccc2-c2ccc(-c3ncc[nH]3)cc2)c1C	150	0.044
Cc1noc(NS(=O)(=O)c2ccccc2-c2ccc(-c3nccn3C)cc2)c1C	120	0.019
Cc1noc(NS(=O)(=O)c2ccccc2-c2ccc(-c3ccccn3)cc2)c1C	6.3	0.0023
Cc1noc(NS(=O)(=O)c2ccccc2-c2ccc(-c3cncnc3)cc2)c1C	170	0.3
Cc1noc(NS(=O)(=O)c2ccccc2-c2ccc(-c3ccno3)cc2)c1C	39	0.27
Cc1noc(NS(=O)(=O)c2ccccc2-c2ccc(-c3ccccc3)cc2)c1C	20	0.038
Cc1noc(NS(=O)(=O)c2ccccc2-c2ccc(-c3nnn[nH]3)cc2)c1C	> 200	3.8
Cc1noc(NS(=O)(=O)c2ccccc2-c2ccc(-c3nccs3)cc2)c1C	52	0.0056
Cc1noc(NS(=O)(=O)c2ccccc2-c2ccc(-c3cccnc3)cc2)c1C	20	0.0033
Cc1noc(NS(=O)(=O)c2ccccc2-c2ccc(-c3ccncn3)cc2)c1C	130	0.025
Cc1noc(NS(=O)(=O)c2ccccc2-c2ccc(-c3nnco3)cc2)c1C	75	0.004
Cc1noc(NS(=O)(=O)c2ccccc2-c2ccc(-c3ncccn3)cc2)c1C	16	0.0009
